Experiments:
[1] = system: α1 adrenergic receptor; assay: Antagonist block of patient-antibody stimulation of the beating rate of cultured neonatal rat cardiomyocytes; type: cell-based; settings: FIG. 1; prazosin given in addition to ICI 118,551; patient immunoglobulins on rat cardiomyocytes
Description: (§1) Preparation of the immunoglobulin fraction.
(§2) The buffer was changed five times during dialysis.

[2] = system: antibodies from patients with Morbus Alzheimer directed to the α1A Adrenoceptor; assay: Peptide neutralization of the antibody-mediated increase of the beating rate (neonatal rat cardiomyocyte bioassay); type: cell-based, human; settings: FIG. 6; overlapping peptides of the second extracellular loop of the α1A Adrenoceptor co-incubated with patient immunoglobulins (n=5)
Method: as §1, §2
(§3) After the dialysis, the IgG fractions feature a concentration of 10-15 mg/ml, a maximum of 10 μg/ml of which are specific receptor antibodies. 50 μl of this IgG solution are pre-incubated with the peptides with the following concentration of peptides: 5 μl of a buffered solution of 100 μg/ml per 50 μl IgG solution. This mixture is pre-incubated at room temperature for 30 minutes and subsequently filled into the cell culture vials, after the former nutrient solution has been removed by pipet. The amount of the medium is 2 ml. The final concentration therefore is of […] for the IgG and 0.5 μg for the peptides. If the molecular weight of the peptide (10 mer) is set with 1 KD and that of the IgG is set with 150 KD, there is an excess of […].
(§4) For the neutralization experiments, synthetic peptides corresponding to the sequence of the three extracellular loops of the human β2 AR or α1A-AR was added in excess (0.5 μg in 50 μl) to 50 μl of the immunoglobulin fraction. The mixtures were shaken and incubated at room temperature for 1 h. The 100-μl samples were then added to neonatal rat heart muscle cells cultured in 2 ml medium to a final dilution of 1:40. The beating rate was counted for 15 s, about 60 min after the addition of the peptide/immunoglobulin mixture. […]

[3] = system: antibodies from patients with Morbus Alzheimer directed to the β2 Adrenoceptor; assay: as above; type: cell-based, human; settings: FIG. 3; overlapping epitope peptides of loop 1 of the β2-AR co-incubated with patient immunoglobulins (n=6)
Method: as §1, §2, §3, §4

Molecule: COc1cc2nc(N3CCN(C(=O)c4ccco4)CC3)nc(N)c2cc1OC [prazosin]
- inhibition of cellular activity of contraction [1]: more effective inhibition

Molecule: APEDET [peptide embedded in the second extracellular loop of the α1A Adrenoceptor]
- neutralisation of the cellular activity of the immunoglobulins [2]: neutralises

Molecule: FGNFWCE
- neutralisation of antibody mediated increase of the beating rate [3]: neutralisation

From patent publication US8455442B2, “Peptides having binding affinity to an antibody which recognizes an epitope on an α1 loop 2 or β2 loop 1 of an adrenoreceptor” (MDC Max-Delbruck-Centrum fur Molekulare Medizin Berlin-Buch, priority 2008, dated 2013)
